Data on ten compounds can be found in PMC8179002, “Inhibitors of thiol-mediated uptake” (Chemical Science, 2020).

Where two headings read alike, the source gives them in different places. Bridge positions count the residues as written; N and C are the ends. Peptide text beside a SMILES is read from it.

Data set [1] in a line: Relative cell viability in HCHT screening (propidium iodide negative nuclei count). The settings on record: human, HeLa, read-out: GI50, concentration causing 50% cell growth inhibition. In kind it is cell-based. In a few lines: (§1)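 HeLa cells pre-incubated with inhibitors at varying concentrations and times, inhibitors removed (or retained in co-incubation variant), then fluorescent reporter added. Live cells counted by automated microscopy as propidium iodide-negative nuclei, normalised to reporter-only wells; GI50 and Hill coefficient fitted from duplicates.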

The test system of a further data set is HeLa Kyoto cells. Described as above. In kind it is cell-based. The conditions noted are these: HeLa, removal, tinc 0.5 h with 1 (10 µM), read-out: GI50, concentration causing 50% cell growth inhibition. In a few lines: as §1
The conditions of data set [2]: trans to cis isomer 22; Fig. S46.
In data set [3] the test system is A549 human lung alveolar basal epithelium cells overexpressing ACE2 and TMPRSS2. The conditions noted are these: Fig. S44.
The mark [4] stands for this setting: tpre 0.5 h, then tco 0.5 h co-incubation of inhibitor and 1 (10 µM).
[5] abbreviates: tpre 0.5 h, then tco 0.5 h co-incubation of inhibitor and 2 (10 µM).
The mark [6] stands for this setting: tpre 0.5 h with inhibitor, removal, tinc 0.5 h with 1 (10 µM).
[7] abbreviates: tpre 1 h with inhibitor, removal, tinc 0.5 h with 1 (10 µM).
Where [8] appears, read: tpre 2 h with inhibitor, removal, tinc 0.5 h with 1 (10 µM).
The mark [9] stands for this setting: tpre 4 h with inhibitor, removal, tinc 0.5 h with 1 (10 µM).
Where [10] appears, read: tpre 4 h with inhibitor, removal, tinc 0.5 h with 2 (10 µM).
The mark [11] stands for this setting: tpre 5.5 h with FBS, then tco 0.5 h co-incubation of inhibitor and 1 (10 µM).
The mark [12] stands for this setting: tpre 6 h with FBS, removal, tinc 0.5 h with 2 (10 µM).
Setting [13] is: tpre 23.5 h with FBS, then tco 0.5 h co-incubation of inhibitor and 1 (10 µM).
The mark [14] stands for this setting: tpre 1 h with inhibitor, removal, tinc 0.5 h with 2 (10 µM).
Where [15] appears, read: tpre 23.5 h with FBS, then tco 0.5 h co-incubation of inhibitor and 2 (10 µM).
The mark [16] stands for this setting: HeLa Kyoto cells, tpre 0.5 h, then tco 0.5 h co-incubation of inhibitor and 2 (10 µM).
[17] abbreviates: HeLa Kyoto cells, tpre 0.5 h with inhibitor, removal, tinc 0.5 h with 1 (10 µM).
Setting [18] is: HeLa Kyoto cells, tpre 1 h with inhibitor, removal, tinc 0.5 h with 1 (10 µM).
Setting [19] is: HeLa Kyoto cells, tpre 1 h with inhibitor, removal, tinc 0.5 h with 2 (10 µM).
Setting [20] is: HeLa Kyoto cells, tpre 1.5 h, then tco 0.5 h co-incubation of inhibitor and 2 (10 µM).
The mark [21] stands for this setting: HeLa Kyoto cells, tpre 2 h with inhibitor, removal, tinc 0.5 h with 1 (10 µM).
[22] abbreviates: HeLa Kyoto cells, tpre 2 h with inhibitor, removal, tinc 0.5 h with 2 (10 µM).
[23] abbreviates: HeLa Kyoto cells, tpre 4 h with inhibitor, removal, tinc 0.5 h with 2 (10 µM).

In the case of `O=C(O)CNC(=O)c1ccc2c(c1)SSSSS2` [compound 6], the GI50 was > 20 µM in data set [1] (setting [4]); > 20 µM in data set [1] (setting [5]); > 100 µM in data set [1] (setting [6]); ~98 µM in data set [1] (setting [7]); ~45 µM in data set [1] (setting [8]); ~44 µM in data set [1] (setting [9]). For the same compound, the GI50 in data set [1] (setting [10]) was ~17 µM; in data set [1] (setting [11]) it was > 20 µM; in data set [1] (setting [12]) it was ~105 µM; in data set [1] (setting [13]), > 20 µM.

Regarding `CCN1C(=O)C2SSC1C(=O)N2CC(=O)O` (stereo not shown) [compound 4], the GI50 in data set [1] (setting [4]) was ~8.4 µM; in data set [1] (setting [5]), ~20 µM; in data set [1] (setting [6]) it was > 100 µM; in data set [1] (setting [7]) it was 12.5 ± 0.7 µM; in data set [1] (setting [14]), > 20 µM; in data set [1] (setting [8]), ~9.2 µM. Moreover, the GI50 in data set [1] (setting [9]) was 6.4 ± 0.3 µM; in data set [1] (setting [10]), ~4 µM; in data set [1] (setting [11]), > 20 µM; in data set [1] (setting [13]), > 20 µM.

As to `[O-][S+]1CC(O)C(O)CS1` (stereo not shown) [compound 17], the GI50 was 710 ± 50 µM with HeLa Kyoto cells (tpre 1 h with inhibitor); 730 ± 10 µM with HeLa Kyoto cells (tpre 2 h with inhibitor); ~500 µM in the data set with HeLa Kyoto cells (tpre 4 h with inhibitor); > 500 µM in data set [1] (setting [4]); > 1000 µM in data set [1] (setting [11]); 450 ± 50 µM in data set [1] (setting [13]). The Isomerization result in data set [2] is recorded as “isomerized with time”.

Turning to `CCN1C(=O)C2SSSSC1C(=O)N2CC(=O)O` (stereo not shown) [compound 3], the GI50 was 13.3 ± 0.8 µM in data set [1] (setting [4]); ~20 µM in data set [1] (setting [5]); 34 ± 2.9 µM in data set [1] (setting [6]); 35 ± 4.4 µM in data set [1] (setting [7]); > 20 µM in data set [1] (setting [14]); 46.1 ± 4.8 µM in data set [1] (setting [8]). For the same compound, the GI50 in data set [1] (setting [9]) was > 50 µM; in data set [1] (setting [11]), > 50 µM; in data set [1] (setting [12]), > 100 µM; in data set [1] (setting [13]), > 50 µM. The “Concentration at which toxicity was detected” value in data set [3] is 50 µM.

In the case of `O=C(O)CC[C@H](NC(=O)CCCCC1CCSS1(=O)=O)C(=O)O` (stereo partly shown) [compound 15], the GI50 in data set [1] (setting [6]) is > 500 µM; in data set [1] (setting [7]) it was > 500 µM; in data set [1] (setting [8]), > 500 µM; in data set [1] (setting [10]), > 500 µM; in data set [1] (setting [11]), > 1000 µM; in data set [1] (setting [13]) it was 944 ± 60 µM. Moreover, the GI50 in data set [1] (setting [15]) is > 500 µM.

Take `N[C@H]1CSSC[C@@H](C(=O)N[C@@H](CCC(=O)O)C(=O)O)NC(=O)CNC1=O` [compound 19] (H-CGCE-OH; disulfide 1-3): the GI50 at 1 h in data set [1] (setting [16]) is > 500 µM; in data set [1] (setting [18]), > 2000 µM; in data set [1] (setting [19]), > 1000 µM. In addition, the GI50 at 0.5 h in data set [1] (setting [17]) is > 2000 µM. Further, the results for the GI50 at 2 h in data set [1] (setting [20]), in data set [1] (setting [21]) and in data set [1] (setting [22]) were > 500 µM, > 2000 µM and > 1000 µM, respectively. In addition, in data set [1] (setting [23]), the GI50 at 4 h was > 1000 µM.

Consider `O=S1(=O)C[C@H](O)[C@H](O)CS1` [compound 16], for which the GI50 in data set [1] (setting [7]) was 1300 ± 490 µM; in data set [1] (setting [10]), > 500 µM; in data set [1] (setting [11]), > 1000 µM; in data set [1] (setting [13]) it was 490 ± 60 µM. Also, the “Concentration at which toxicity was detected” value in data set [3] was 500 µM.

In the case of `O=C(CN1C(=O)C2SSC1C(=O)N2CCOc1ccccc1)NCC(=O)OC[C@H]1OC(O)[C@H](O)[C@@H](O)[C@@H]1O` (stereo partly shown) [compound 7], the GI50 in data set [1] (setting [6]) is > 100 µM; in data set [1] (setting [7]) it was > 100 µM; in data set [1] (setting [8]), > 100 µM; in data set [1] (setting [10]), > 100 µM; in data set [1] (setting [11]) it was > 100 µM; in data set [1] (setting [12]), > 200 µM. For the same compound, the GI50 in data set [1] (setting [13]) and in data set [1] (setting [15]) was > 100 µM each time.

As for `O=C(O)CC[C@H](NC(=O)CN1C(=O)C2SSC1C(=O)N2CCOc1ccccc1)C(=O)O` (stereo partly shown) [compound 9], the GI50 in data set [1] (setting [6]) was > 100 µM; in data set [1] (setting [7]), > 100 µM; in data set [1] (setting [8]), > 100 µM; in data set [1] (setting [10]), > 100 µM; in data set [1] (setting [12]), > 200 µM.

On to `N[C@H]1CSSC[C@@H](C(=O)NCC(=O)O)NC(=O)[C@H](CCC(=O)O)NC1=O` [compound 18] (H-CECG-OH; disulfide 1-3), for which the GI50 at 1 h in data set [1] (HeLa Kyoto cells, tpre 0.5 h, then tco 0.5 h co-incubation of inhibitor and 1 (10 µM)) is > 500 µM; in data set [1] (setting [16]) it was > 500 µM; in data set [1] (setting [18]) it was > 2000 µM; in data set [1] (setting [19]) it was > 1000 µM. For the same compound, the GI50 at 0.5 h in data set [1] (setting [17]) is > 2000 µM. Further, the results for the GI50 at 2 h in data set [1] (setting [20]), in data set [1] (setting [21]) and in data set [1] (setting [22]) were > 500 µM, > 2000 µM and > 1000 µM, respectively. Besides, in data set [1] (setting [23]), the GI50 at 4 h was > 1000 µM. Also, in data set [1] (HeLa Kyoto cells, tpre 5.5 h with FBS, then tco 0.5 h co-incubation of inhibitor and 1 (10 µM)), the GI50 at 6 h is > 1000 µM. Moreover, in data set [1] (HeLa Kyoto cells, tpre 23.5 h with FBS, then tco 0.5 h co-incubation of inhibitor and 1 (10 µM)), the GI50 at 24 h is > 1000 µM.
